Consider 3 molecules from patent US12168086B2, “Hemostatic devices and methods of use” (priority 2016, dated 2024).

Data set [1] concerns myofibroblast formation. The settings on record: Ajmal et al. (2003); cited from earlier work.
For data set [2] the following is noted: PBS pH 7.4 without TXA, with TXA 0.05 mg/mL or 5 mg/mL, over 25 hours.
Data set [3] can be described thus: time to reach plasma concentrations. Particulars: in vivo.
Data set [4] deals with blood clotting. The settings on record: in vitro, 1.2 mg of TXA alone.

Consider `O=S(=O)([O-])CCS.[Na+]` [MESNA, sodium 2-mercaptoethane sulfonate], for which, in data set [1], the myofibroblast formation entry is “diminish myofibroblast formation”.

As for `CO[C@H]1/C=C/O[C@@]2(C)Oc3c(C)c(O)c4c(O)c(c(/C=N/N5CCN(C)CC5)c(O)c4c3C2=O)NC(=O)/C(C)=C\C=C\[C@H](C)[C@H](O)[C@@H](C)[C@@H](O)[C@@H](C)[C@H](OC(C)=O)[C@@H]1C` [rifampin], in data set [2], the “elution rate from p22-27.5 polymer” value is reported as “not affected by the presence of TXA”.

On to `NC[C@H]1CC[C@H](C(=O)O)CC1` [tranexamic acid], for which the “time to reach plasma concentrations” value in data set [3] was 5 to 15 min. Further, in data set [4], the “time to induce blood clotting” value is reported as “about 19 minutes”.
